Molecules are shown by their SMILES.

As usually defined, the inhibition is the percentage by which the read-out fell short of the control.

The nature of series [1]: Toxicity screening using primary cultured hepatocyte (LDH release). Type of series: cell-based, rat. To be noted: rat, primary hepatocytes, 24 hr, control 0.5% saline or 0.5% DMSO, read-out: Percent control of LDH release. As to the method:
The hepatocytes was prepared from rat liver by collagenase perfusion method and suspension containing 5×10^5 cells/ml were prepared. After cultivation for 24 hr, the suspension was exchanged to the William's Medium E (GIBCO BRL) containing 10 or 100 μM of the compounds of this invention. After cultivation for 24 hr, the activity of lactate dehydrogenase (LDH) released in the medium was measured.

The subject of series [2] is dopamine release, striatum. In words: Release of biogenic amines from brain tissue: dopamine, striatum. Format: in vivo, Wistar rats. As to the method: (§1) The method described in Life Sci., 56, 611-620 (1995) was used. After Wistar rats were decapitated, appropriate brain samples, which were striatun, substantia nigra, tuberculum olfactorium, locus coeruleus and raphe, were removed quickly and soaked in oxygenated (95% O2 and 5% CO2) Krebs solution at 37° C. The composition of Krebs solution was as follows in […]: NaCl 111, KCl 4.7, CaCl2 2.5, MgSO4 1.64, NaHCO3 25, KH2 PO4 1.2, glucose 11, 50 mg/l ascorbic add and 20 mg/l EDTA-2 Na. The preparations, soaked in one organ bath, were as follows: 1) four pieces of striatum (each halved), 2) four pieces of substantia nigra, 3) four pieces of tuberculum olfactorium; 4) eight pieces of locus coeruleus; 5) eight pieces of raphe. After incubation of the appropriate tissue for 20 min, the Krebs solution was replaced, the tissue soaked for 20 min in Krebs solution dissolving the compounds of this invention and the amount of biogenic amine released during this period of time was estimate. The compounds of this invention and PPAP, control compound, were dissolved in saline and were administered subcutaneously before 30 min to removing brain sample. For measuring noradrenaline and dopamine, samples were purified on 60 mg alumina containing micro columns (BDH Chemicals Ltd.) according to the method described in J. Pharmacol. Exp. Ther., 138, 360-372 (1962) For measuring serotonin, samples were purified on 15 mg Sephadex G-10 micro columns (Pharmacia). Dopamine, noradrenaline and serotonin were determined by high performance liquid chromatography (Waters 746 data module) with electrochemical detection (Waters 460 electrochemical detector). Waters Resolve 5μ Spherical C18 3.9×150 mm column was used as separating column and triethylamine-phosphate buffer (pH 5.2), containing 200 mg/l octane sulfonate sodium and 18 mg/l EDTA-2 Na with 6% acetonitrile, was used as mobile phase. The release amount of appropriate amine was noted as nmol/g tissue released for 20 min. deference of means tested by Student's t-test and significant level was set at P<.05.

Another series concerns the target T1, human platelet MAO-B (Homo sapiens, UniProt P27338).
T1 construct: The suspension was used as enzyme for MAO activity assay in blood platelets; from tissue; host or cells: human blood platelets (frozen, thawed and sonicated platelet rich plasma)
T1 sequence (P27338 1-520): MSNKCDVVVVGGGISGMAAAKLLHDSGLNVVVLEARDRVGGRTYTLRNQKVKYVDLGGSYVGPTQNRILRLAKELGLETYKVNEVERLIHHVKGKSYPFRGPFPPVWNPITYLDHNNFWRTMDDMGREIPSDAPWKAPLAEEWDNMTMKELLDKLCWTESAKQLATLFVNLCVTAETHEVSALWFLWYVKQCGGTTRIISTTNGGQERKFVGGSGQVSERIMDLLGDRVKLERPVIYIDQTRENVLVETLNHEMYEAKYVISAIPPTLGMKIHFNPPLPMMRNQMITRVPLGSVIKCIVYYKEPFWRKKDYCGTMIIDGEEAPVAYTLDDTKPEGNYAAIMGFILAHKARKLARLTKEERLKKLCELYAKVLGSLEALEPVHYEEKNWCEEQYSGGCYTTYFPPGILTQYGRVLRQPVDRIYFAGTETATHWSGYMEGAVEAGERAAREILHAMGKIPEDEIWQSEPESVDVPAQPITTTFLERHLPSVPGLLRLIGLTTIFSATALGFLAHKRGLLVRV
In words: biochemical. The settings on record: 10^-5 M; read-out: Inhibition rate of MAO-B. Here is the method: Human blood added with 3.8% citric acid was centrifuged at 950 rpm for 10 min and platelet rich plasma (PRP) was obtained. The residual blood cell was centrifuged at 3,000 rpm for 10 min and platelet poor plasma (PPP) was obtained. After blood platelets were measured from a part of PRP, PRP and PPP were frozen at -20° C. They were thawed and were sonicated to be dispersed and suspended when MAO activity was measured. The suspension was used as enzyme for MAO activity assay in blood platelets. In addition, almost all of MAO in blood platelets have been known to be B type.
MAO-B activity was determined according to the method described in Biochem. Pharmacol., 14, 1684-1685 (1965). […] The mixture was incubated at 37° C. for 5 min. After 80 μl of PRP or PPP was added to it, the mixture was incubated at 37° C. for 20 min. Thereafter, 120 μl of substrate (0.33 mg/ml kynuramine dihydrobromide) was added thereto. After incubation at 37° C. for 30 min, 800 μl of 10% trichloroacetic acid were added to stop the reaction and the solution was centrifuged at 3,000 rpm for 10 min. To 1 ml of the supernatant, 2 ml of 1 N NaOH was added and fluorescence of the solution was measured at Ex 312 nm and Em 380 nm. PRP was prepared to 250,000 cell/μl as amounts of blood platelets with […] phosphate buffer solution and 4-hydroxyquinoline was used as standard for measurement.

The test system of series [3] is dopamine release, tuberculum olfactorium. Description: Release of biogenic amines from brain tissue: dopamine, tuberculum olfactorium. Format: in vivo, Wistar rats. Here is the method: as §1
Series [4] relates to dopamine release, substantia nigra. Description: Release of biogenic amines from brain tissue: dopamine, substantia nigra. Type of series: in vivo, Wistar rats. Here is the method:
as §1

For series [5], the system named is noradrenaline release, locus coeruleus. In words: Release of biogenic amines from brain tissue: noradrenaline, locus coeruleus. Format: in vivo, Wistar rats. As to the method:
as §1

A further series has as its system serotonin release, raphe. In words: Release of biogenic amines from brain tissue: serotonin, raphe. Type of series: in vivo, Wistar rats. As to the method: as §1
Series [6] has as its system rats reduced learning ability by tetrabenazine. Description: Conditioned avoidance task in the shuttle box (tetrabenazine-treated rats). Format: in vivo, rat. The settings on record: tetrabenazine 1 mg/kg s.c., significance and direction. As to the method: The method described in Life Sci., 58, 817-827 (1996) was used. The effects on conditioned avoidance reflex (CARs) was analyzed in the shuttle box using male and female rats (weighing 200-220 g) whose leaning abilities were reduced by treatment of tetrabenazine. The instrument was constructed, according to the device described in Psychopharmacologia 10, 1-5 (1966) by the Research Institute for Electrical Industry (Budapest, Hungary). The male and female rats (weighing 200-220 g) were trained to cross the berrier under the influence of a conditioned stimulus (CS) (light flash and buzzer sounds). […] And the performance which was not related to this condition was noted as an intersignal reaction (IR). The rats were trained with 100 trials per day for 5 days. One trial consisted of 15 sec intertrial interval. The saline solution of tetrabenazine was administered at a dose of 1 mg/kg subcutaneously before one hour prior to the test and then the solution of the compounds of this invention were administered at the doses of 1, 2, 2.5 and 5 mg/kg subcutaneously with the simultaneous administration of tetrabenazine. The nmbers of CARs, EFs and IRs were automatically counted and evaluated by multi-way analysis of variance (ANOVA).

Consider `CCCNC(CCC)Cc1cccc2ccccc12` (stereo not shown) [Compound No. 5, 1-(1-Naphthyl)-2-propylaminopentane], for which the activity at 24 h, 10 µM in series [1] was 111 ± 4.02%. The activity at 24 h, 100 µM in series [1] was 195 ± 9.16%. The “Release of dopamine, striatum” value in series [2] (0.25 mg/kg s.c.) was 4.3 ± 0.14 nmol/g tissue, for 20 min; in series [2] (1.00 mg/kg s.c.), 3.2 ± 0.14 nmol/g tissue, for 20 min. Moreover, on human platelet MAO-B, the inhibition at 10 µM was found to be 17.3%. In addition, the “Release of dopamine, tuberculum olfactorium” value is 6.0 ± 0.16 nmol/g tissue, for 20 min in series [3] (0.25 mg/kg s.c.) and 4.6 ± 0.13 nmol/g tissue, for 20 min in series [3] (1.00 mg/kg s.c.). Moreover, the “Release of dopamine, substantia nigra” value in series [4] (0.25 mg/kg s.c.) was 5.6 ± 0.18 nmol/g tissue, for 20 min; in series [4] (1.00 mg/kg s.c.) it was 4.4 ± 0.16 nmol/g tissue, for 20 min. The “Release of noradrenaline, locus coeruleus” value (“Release of noradrenaline” below) is given as 3.9 ± 0.25 nmol/g tissue, for 20 min in series [5] (0.25 mg/kg s.c.) and 4.4 ± 0.50 nmol/g tissue, for 20 min in series [5] (1.00 mg/kg s.c.). For the same compound, the “Release of serotonin, raphe” value is given as 0.425 ± 0.02 nmol/g tissue, for 20 min in the series on serotonin release, raphe (0.25 mg/kg s.c.) and 0.571 ± 0.01 nmol/g tissue, for 20 min in the series with serotonin release, raphe (1.00 mg/kg s.c.).

Take `CCCC(Cc1ccc2ccccc2c1)NCC` (stereo not shown) [Compound No. 6]: the “Release of dopamine, striatum” value in series [2] (1.00 mg/kg s.c.) is on record as 3.6 ± 0.12 nmol/g tissue, for 20 min. The inhibition at 10 µM at human platelet MAO-B is 24.5%. The “Release of dopamine, tuberculum olfactorium” value in series [3] (1.00 mg/kg s.c.) is 5.3 ± 0.19 nmol/g tissue, for 20 min. The “Release of dopamine, substantia nigra” value in series [4] (1.00 mg/kg s.c.) was 6.7 ± 0.26 nmol/g tissue, for 20 min. For the same compound, the “Release of noradrenaline” value in series [5] (1.00 mg/kg s.c.) is reported as 3.1 ± 0.05 nmol/g tissue, for 20 min. For the same compound, the “Condition Avoidance Reflex (CARs)” value in series [6] (1 mg/kg s.c.) and in series [6] (5 mg/kg s.c.) was “**** .Arrow-up bold” in each case. In addition, the “Escape Failures (EFs)” value in series [6] (1 mg/kg s.c.) and in series [6] (5 mg/kg s.c.) was “* .dwnarw” throughout. Besides, the “Release of serotonin, raphe” value with serotonin release, raphe (1.00 mg/kg s.c.) is given as 0.708 ± 0.07 nmol/g tissue, for 20 min.

As to `CCCNC(CC)Cc1ccc2ccccc2c1` (stereo not shown) [Compound No. 10], the “Release of dopamine, striatum” value in series [2] (1.00 mg/kg s.c.) is given as 3.3 ± 0.22 nmol/g tissue, for 20 min. The inhibition at 10 µM on human platelet MAO-B amounted to 37.2%. Also, in series [3] (1.00 mg/kg s.c.), the “Release of dopamine, tuberculum olfactorium” value is reported as 5.6 ± 0.35 nmol/g tissue, for 20 min. In addition, the “Release of dopamine, substantia nigra” value in series [4] (1.00 mg/kg s.c.) is 6.2 ± 0.31 nmol/g tissue, for 20 min. Further, in series [5] (1.00 mg/kg s.c.), the “Release of noradrenaline” value is recorded as 2.9 ± 0.15 nmol/g tissue, for 20 min. The “Release of serotonin, raphe” value with serotonin release, raphe (1.00 mg/kg s.c.) is listed as 0.603 ± 0.10 nmol/g tissue, for 20 min.

With `CCCNC(CCC)Cc1cccc2c1OCO2.Cl` (stereo not shown) [Compound No. 28, 1-(1,3-Benzodioxol-4-yl)-2-propylaminopentane Hydrochloride], the activity at 24 h, 10 µM in series [1] was found to be 93 ± 6.92%. In addition, the activity at 24 h, 100 µM in series [1] turned out to be 148 ± 6.55%. The “Release of dopamine, striatum” value in series [2] (0.25 mg/kg s.c.) is on record as 3.4 ± 0.16 nmol/g tissue, for 20 min; in series [2] (1.00 mg/kg s.c.), 4.0 ± 0.18 nmol/g tissue, for 20 min; in series [2] (5.00 mg/kg s.c.), 3.1 ± 0.13 nmol/g tissue, for 20 min. The inhibition at 10 µM on human platelet MAO-B is 22.2%. In addition, the “Release of dopamine, tuberculum olfactorium” value in series [3] (0.25 mg/kg s.c.) was 3.8 ± 0.22 nmol/g tissue, for 20 min; in series [3] (1.00 mg/kg s.c.) it was 4.6 ± 0.22 nmol/g tissue, for 20 min; in series [3] (5.00 mg/kg s.c.), 3.1 ± 0.14 nmol/g tissue, for 20 min. Besides, the “Release of dopamine, substantia nigra” value in series [4] (0.25 mg/kg s.c.) is 6.1 ± 0.35 nmol/g tissue, for 20 min; in series [4] (1.00 mg/kg s.c.), 5.4 ± 0.27 nmol/g tissue, for 20 min; in series [4] (5.00 mg/kg s.c.), 4.9 ± 0.17 nmol/g tissue, for 20 min. The “Release of noradrenaline” value was 3.6 ± 0.35 nmol/g tissue, for 20 min in series [5] (0.25 mg/kg s.c.); 3.7 ± 0.10 nmol/g tissue, for 20 min in series [5] (1.00 mg/kg s.c.); 3.9 ± 0.10 nmol/g tissue, for 20 min in series [5] (5.00 mg/kg s.c.). In addition, the “Condition Avoidance Reflex (CARs)” value is given as “* .Arrow-up bold” in series [6] (1 mg/kg s.c.), “**** .Arrow-up bold” in series [6] (2.5 mg/kg s.c.) and “**** .Arrow-up bold” in series [6] (5 mg/kg s.c.). Moreover, the “Escape Failures (EFs)” value is given as “**** .dwnarw” in series [6] (2.5 mg/kg s.c.) and “*** .dwnarw” in series [6] (5 mg/kg s.c.). For the same compound, the “Release of serotonin, raphe” value is reported as 1.031 ± 0.03 nmol/g tissue, for 20 min in the series with serotonin release, raphe (0.25 mg/kg s.c.); 1.017 ± 0.06 nmol/g tissue, for 20 min in the series with serotonin release, raphe (1.00 mg/kg s.c.); 1.436 ± 0.01 nmol/g tissue, for 20 min in the series with serotonin release, raphe (5.00 mg/kg s.c.).

The record behind these values is patent publication US6214859A, “Ethylamine derivatives” (Fujimoto Brothers Co., Ltd., priority 1997, dated 2001).
